Bridges are numbered along the chain shown (N, C = ends). Where no end group is shown, it is not given here.
Experiments:
[1] = tested on: MIA PaCa-2 human pancreatic cancer cell line; conditions: ref Liebow et al., 1989; cited from earlier work
Excerpt: Br. J. Cancer (1994). 70, 886 892 ? Macmillan Press Ltd..

[2] = tested on: Bombesin/GRP receptors in membranes of SCLC H69 tumours; test: Bombesin/GRP receptor binding on H69 tumour membranes after in vivo treatment; parameters: species or system human
Excerpt: (§1) Br. J. Cancer (1994). 70, 886 892 ? Macmillan Press Ltd.. […] Bombesin GRP antagonists. […] Lung carcinoma is the leading cause of cancer-related deaths in the western world. It is estimated that in 1992 there were approximately 168,000 new cases of lung cancer in the US and that about 146,000 deaths occurred from this disease (Boring et al., 1992). […] The growth factors such as bombesin/gastrin-releasing pep- tide (GRP), epidermal growth factor, (EGF), transforming growth factor a (TGF-x) and insulin-like growth factor I(IGF-I) appear to play a role in the proliferation and pro- gression of lung cancer (Cuttitta et al., 1985; Veale et al., 1987; Minuto et al., 1988; Siegfried & Owens, 1988; Macaulay et al., 1990; Tateishi et al., 1991; Damstrup et al., 1992; Sethi & Rozengurt, 1992; Rabiasz et al., 1992; Moody & Cuttitta, 1993). […] Tpi is 2,3,4,9-tetrahydro- Correspondence: A.V. Schally (151). VA Medical Center, 1601 Per- dido Street. New Orleans, LA 70146. USA. Received 1 March 1994; and in revised form 5 July 1994. Br. J. Cancer (1994), 70, 886-892 C Macmillan Press Ltd., 1994 PEPTIDE ANALOGUES IN LUNG CANCER 8U7 lH-pyrido [3,4bjindol-3-carboxylic acid, a conformationally constrained secondary amine derivate of tryptophan and Tac is thiazolidine-4-carboxylic acid. […] Animals Male athymic NCr nulmu nude mice, approximately 6 weeks old on arrival, were obtained from the NCI (Bethesda, MD, USA) and maintained under pathogen-limited conditions. Cell lines The human SCLC cell line NCI-H69, was obtained from the American Type Cell Culture (ATCC), Rockville, MD, USA and the non-SCLC cell line NCI-H157, from Dr H. Oie, NCI-Navy Medical Oncology Branch, Bethesda, MD, USA. These cell lines were cultured in RPMI-1640 medium supple- mented with 4 mM L-glutamine, 50 units ml-I penicilln G sodium, SOigml-' streptomycin sulphate, 0.125pgml-' amphotericin B and 10% fetal bovine serum at 3TC in a humidified 95% air/5% carbon dioxide atmosphere. CeLs were passaged weekly and routinely monitored for myco- plasma contamination using a detection kit (Boehringer- Mannheim, Mannheim, Germany). All culture media com- ponents were purchased from Gibco (Grand Island, NY, USA). Receptor assays Preparation of membranes for receptor studies was described previously (Halmos et al., 1993). Iodinated EGF and IGF-I were purchased from Amersham (Arlington Heights, IL, USA). Radioiodination of other peptides and receptor bind- ing of EGF, IGF-I, somatostatin and bombesin/GRP were performed as previously described (Srkalovic et al., 1989; Szepeshazi et al., 1992). Complete displacement assays on tumour membranes were done only once because of the shortage of tumour material. The LIGAND PC computerised curve-fitting programme of Munson and Rodbard (1980) was used to determine the types of receptor binding, dissociation constant (Kd) values, and the maximal binding capacity (BDj) of receptors. […] The number of mitotic and apoptotic cells per 1,000 cells was determined, and the percentage area of necrosis in tumour sections was examined using the point-counting method (Szepeshazi et al., 1991, 1992), in which the crossing points of an ocular net that coincide with necrosis in various sections are counted. Radiommunoassays Serum levels of growth hormone were determined by double- antibody radioimmunoassay (RIA) using materials supplied by the National Hormone and Pituitary Program of the National Institute of Diabetes and Digestive and Kidney Diseases (NIDDK).

[3] = tested on: IGF-I receptors in membranes of SCLC H69 tumours; test: IGF-I receptor binding on H69 tumour membranes after in vivo treatment; parameters: species or system human; conditions: Table IV, Experiment I (SCLC-H69), control 294, done once
Excerpt: as §1, with “USA).” for “USA). Receptor assays Preparation of membranes for receptor studies was described previously (Halmos et al., 1993). Iodinated EGF and IGF-I were purchased from Amersham (Arlington Heights, IL, USA). Radioiodination of other peptides and receptor bind- ing of EGF, IGF-I, somatostatin and bombesin/GRP were performed as previously described (Srkalovic et al., 1989; Szepeshazi et al., 1992). Complete displacement assays on tumour membranes were done only once because of the shortage of tumour material. The LIGAND PC computerised curve-fitting programme of Munson and Rodbard (1980) was used to determine the types of receptor binding, dissociation constant (Kd) values, and the maximal binding capacity (BDj) of receptors.”

[4] = Serum gastrin radioimmunoassay in nude mice; type: in vivo; conditions: Table III, Experiment I (SCLC H-69), after treatment; double-antibody RIA; control 130.0 ? 10.8; means ? s.e.; **P < 0.01 vs control
[5] = tested on: human SCLC cell line NCI-H69; test: Growth of H69 SCLC xenografts in nude mice; type: in vivo, human (xenograft in male athymic nude mice)
Excerpt: Br. J. Cancer (1994). 70, 886 892 ? Macmillan Press Ltd.. […] Bombesin GRP antagonists. […] Lung carcinoma is the leading cause of cancer-related deaths in the western world. It is estimated that in 1992 there were approximately 168,000 new cases of lung cancer in the US and that about 146,000 deaths occurred from this disease (Boring et al., 1992). […] The growth factors such as bombesin/gastrin-releasing pep- tide (GRP), epidermal growth factor, (EGF), transforming growth factor a (TGF-x) and insulin-like growth factor I(IGF-I) appear to play a role in the proliferation and pro- gression of lung cancer (Cuttitta et al., 1985; Veale et al., 1987; Minuto et al., 1988; Siegfried & Owens, 1988; Macaulay et al., 1990; Tateishi et al., 1991; Damstrup et al., 1992; Sethi & Rozengurt, 1992; Rabiasz et al., 1992; Moody & Cuttitta, 1993). […] Tpi is 2,3,4,9-tetrahydro- Correspondence: A.V. Schally (151). VA Medical Center, 1601 Per- dido Street. New Orleans, LA 70146. USA. Received 1 March 1994; and in revised form 5 July 1994. Br. J. Cancer (1994), 70, 886-892 C Macmillan Press Ltd., 1994 PEPTIDE ANALOGUES IN LUNG CANCER 8U7 lH-pyrido [3,4bjindol-3-carboxylic acid, a conformationally constrained secondary amine derivate of tryptophan and Tac is thiazolidine-4-carboxylic acid. […] Animals Male athymic NCr nulmu nude mice, approximately 6 weeks old on arrival, were obtained from the NCI (Bethesda, MD, USA) and maintained under pathogen-limited conditions. Cell lines The human SCLC cell line NCI-H69, was obtained from the American Type Cell Culture (ATCC), Rockville, MD, USA and the non-SCLC cell line NCI-H157, from Dr H. Oie, NCI-Navy Medical Oncology Branch, Bethesda, MD, USA. These cell lines were cultured in RPMI-1640 medium supple- mented with 4 mM L-glutamine, 50 units ml-I penicilln G sodium, SOigml-' streptomycin sulphate, 0.125pgml-' amphotericin B and 10% fetal bovine serum at 3TC in a humidified 95% air/5% carbon dioxide atmosphere. CeLs were passaged weekly and routinely monitored for myco- plasma contamination using a detection kit (Boehringer- Mannheim, Mannheim, Germany). All culture media com- ponents were purchased from Gibco (Grand Island, NY, USA). Receptor assays Preparation of membranes for receptor studies was described previously (Halmos et al., 1993). Iodinated EGF and IGF-I were purchased from Amersham (Arlington Heights, IL, USA). Radioiodination of other peptides and receptor bind- ing of EGF, IGF-I, somatostatin and bombesin/GRP were performed as previously described (Srkalovic et al., 1989; Szepeshazi et al., 1992). Complete displacement assays on tumour membranes were done only once because of the shortage of tumour material. The LIGAND PC computerised curve-fitting programme of Munson and Rodbard (1980) was used to determine the types of receptor binding, dissociation constant (Kd) values, and the maximal binding capacity (BDj) of receptors. In order to determine the specificity of the binding sites for radiolabelled EGF, IGF-I, somatostatin and bombesin to lung cancer membranes, various structuraly related and unrelated peptides were tested for their ability to inhibit the binding of the tracers. Histological procedure The histological procedures were the same as described previously (Szepeshazi et al., 1991, 1992). The number of mitotic and apoptotic cells per 1,000 cells was determined, and the percentage area of necrosis in tumour sections was examined using the point-counting method (Szepeshazi et al., 1991, 1992), in which the crossing points of an ocular net that coincide with necrosis in various sections are counted. Radiommunoassays Serum levels of growth hormone were determined by double- antibody radioimmunoassay (RIA) using materials supplied by the National Hormone and Pituitary Program of the National Institute of Diabetes and Digestive and Kidney Diseases (NIDDK).

[6] = Body weight of tumour-bearing nude mice; conditions: Table I, Experiment I (SCLC-H69), end of experiment; control 26.3 ? 2.3; means ? s.d.
Excerpt: Br. J. Cancer (1994). 70, 886 892 ? Macmillan Press Ltd.. […] Bombesin GRP antagonists. […] Lung carcinoma is the leading cause of cancer-related deaths in the western world. It is estimated that in 1992 there were approximately 168,000 new cases of lung cancer in the US and that about 146,000 deaths occurred from this disease (Boring et al., 1992). […] CeLs were passaged weekly and routinely monitored for myco- plasma contamination using a detection kit (Boehringer- Mannheim, Mannheim, Germany). […] The number of mitotic and apoptotic cells per 1,000 cells was determined, and the percentage area of necrosis in tumour sections was examined using the point-counting method (Szepeshazi et al., 1991, 1992), in which the crossing points of an ocular net that coincide with necrosis in various sections are counted. Radiommunoassays Serum levels of growth hormone were determined by double- antibody radioimmunoassay (RIA) using materials supplied by the National Hormone and Pituitary Program of the National Institute of Diabetes and Digestive and Kidney Diseases (NIDDK).

[7] = tested on: EGF receptors in membranes of SCLC H69 tumours; test: EGF receptor binding on H69 tumour membranes after in vivo treatment; parameters: species or system human; conditions: Table IV, Experiment I (SCLC-H69); tumour membranes after in vivo treatment; control 278; ten-point displacement in triplicate tubes, done once
Excerpt: as §1

[8] = tested on: Somatostatin receptors in membranes of SCLC H69 tumours; test: Somatostatin receptor binding on H69 tumour membranes after in vivo treatment; parameters: species or system human; conditions: Table IV, Experiment I (SCLC-H69); tumour membranes after in vivo treatment; control 450; done once
Excerpt: as §1

| Substance | Effect on EGF-stimulated cell growth (in words) [1] | Effect on EGF-stimulated phosphorylation of the tyrosine kinase domain of the EGF receptors (in words) [1] | Bombesin/GRP maximal binding capacity (Bmax) ([2]; Table IV, Experiment I (SCLC-H69), tumour membranes after in vivo treatment, control 420, done once) [fmol mg-'protein] | Concentration of receptors for bombesin/GRP on H69 tumours (in words) ([2]; after in vivo treatment) | IGF-I maximal binding capacity (Bmax) [3] [fmol mg' protein] | Serum gastrin [4] | Tumour volume, final ([5]; Table I, Experiment I (SCLC-H69), 5 weeks s.c. peritumoral, RC-160 100 µg/day, RC-3440, RC-3095, RC-3950-II 20 µg/day per animal, control 249.7 ? 182.3, means ? s.d., ten animals per group, *P<0.05 vs control) [mm³] | Tumour weight ([5]; Table I, Experiment I (SCLC-H69), 5 weeks s.c. peritumoral, RC-160 100 µg/day, antagonists 20 µg/day per animal, control 0.27 ? 0.19, means ? s.d., *P<0.05 vs control) | Tumour doubling time ([5]; Table I, Experiment I (SCLC-H69), 5 weeks, RC-160 100 µg/day, antagonists 20 µg/day per animal s.c., control 7.5) [days] | Growth of H69 SCLC tumours (in words) ([5]; s.c. peritumorally, RC-160 100 µg, bombesin/GRP antagonists 20 µg per animal per day, 5 weeks) | Body weight [6] [g] | EGF maximal binding capacity (Bmax) [7] [fmol mg' protein] | Somatostatin maximal binding capacity (Bmax) [8] [fmol mg-'protein] |
| --- | --- | --- | --- | --- | --- | --- | --- | --- | --- | --- | --- | --- | --- |
| somatostatin: native peptide somatostatin (AGCKNFFWKTFTSC; disulfide 3-14; ends not checked; UniProt P61278 103-116, looked up) [reference compound] | reversed the stimulatory effect of EGF | reversed the stimulatory effect of EGF | – | – | – | – | – | – | – | – | – | – | – |
| [Tpi6, Leu'3*(CH2N)Tpi'4 bombesin (6-16) [RC-3440] | – | – | 255 | markedly dereased | 255 | 92.7 8.2 pg ml' | 74.1 | 0.076 ± 0.04* g | 12.1 | inhibited the growth of H69 SCLC tumours | 26.2 ± 1.3 | 134 | 501 |
